# Reference: patent US8124793B2, “Derivatives of ethylene methanedisulfonate as cancer chemotherapeutic agents” (priority 2007, dated 2012)
# Assays:
# Assay type in all cases: cell-based
# MALME-3M = assay: NCI screen, growth of human tumor cells: Melanoma MALME-3M; conditions: 10^−4 molar
# Summary of the method: (§1)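 Percent-growth read-out from the NCI cancer cell screen; data annotated by cancer type and molar concentration, ≥60 points per compound.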
# SK-MEL-2 = assay: NCI screen, growth of human tumor cells: Melanoma SK-MEL-2
# Summary of the method: as §1
# OVCAR-4 = assay: NCI screen, growth of human tumor cells: Ovarian Cancer OVCAR-4; conditions: OVCAR-4, 10^−4 molar
# Summary of the method: as §1
# SK-MEL-5 = assay: NCI screen, growth of human tumor cells: Melanoma SK-MEL-5
# Summary of the method: as §1
# KM12 = assay: NCI screen, growth of human tumor cells: Colon Cancer KM12; conditions: KM12, 10^−4 molar
# Summary of the method: as §1
# PC-3 = assay: NCI screen, growth of human tumor cells: Prostate Cancer PC-3
# Summary of the method: as §1
# AS49/ATCC = assay: NCI screen, growth of human tumor cells: Non-Small Cell Lung AS49/ATCC; conditions: A549/ATCC, 10^−4 molar
# Summary of the method: as §1
# SR = assay: NCI screen, growth of human tumor cells: Leukemia SR; conditions: for % Growth: SR
# Summary of the method: as §1
# K562 = assay: NCI screen, growth of human tumor cells: Leukemia K562
# Summary of the method: as §1
# UO-31 = assay: NCI screen, growth of human tumor cells: Renal Cancer UO-31; conditions: UO-31, 10^−4 molar
# Summary of the method: as §1
# U-251 = assay: NCI screen, growth of human tumor cells: CNS Cancer U-251
# Summary of the method: as §1
# DU-145 = assay: NCI screen, growth of human tumor cells: Prostate Cancer DU-145; conditions: DV-145, 10^−4 molar
# Summary of the method: as §1
# OVCAR-3 = assay: NCI screen, growth of human tumor cells: Ovarian Cancer OVCAR-3; conditions: OVCAR-3, 10^−4 molar
# Summary of the method: as §1
# HCT-116 = assay: NCI screen, growth of human tumor cells: Colon Cancer HCT-116
# Summary of the method: as §1
# 786-0 = assay: NCI screen, growth of human tumor cells: Renal Cancer 786-0; conditions: 786-0, 10^−4 molar
# Summary of the method: as §1
# MOLT-4 = assay: NCI screen, growth of human tumor cells: Leukemia MOLT-4
# Summary of the method: as §1
# MCF 7 = assay: NCI screen, growth of human tumor cells: Breast Cancer MCF 7
# Summary of the method: as §1
# MCF7/ADR-RES = assay: NCI screen, growth of human tumor cells: Breast Cancer MCF7/ADR-RES; conditions: MCF7/ADR-RES (Breast Cancer), 10^−4 molar
# Summary of the method: as §1
# MDA-MB-435 = assay: NCI screen, growth of human tumor cells: Breast Cancer MDA-MB-435
# Summary of the method: as §1
# HOP-62 = assay: NCI screen, growth of human tumor cells: Non-Small Cell Lung HOP-62; conditions: HOP-62, 10^−4 molar
# Summary of the method: as §1
# EKVX = assay: NCI screen, growth of human tumor cells: Non-Small Cell Lung EKVX; conditions: EKVX, 10^−4 molar
# Summary of the method: as §1
# HCC-2998 = assay: NCI screen, growth of human tumor cells: HCC-2998 (listed under Non-Small Cell Lung)
# Summary of the method: as §1
# NCI-H23 = assay: NCI screen, growth of human tumor cells: Non-Small Cell Lung NCI-H23
# Summary of the method: as §1
# NCI-H226 = assay: NCI screen, growth of human tumor cells: Non-Small Cell Lung NCI-H226
# Summary of the method: as §1
# CAKI-1 = assay: NCI screen, growth of human tumor cells: Renal Cancer CAKI-1
# Summary of the method: as §1
# CCRF-CEM = assay: NCI screen, growth of human tumor cells: Leukemia CCRF-CEM; conditions: for % Growth: CCRF-CEM
# Summary of the method: as §1
# LOXIMVI = assay: NCI screen, growth of human tumor cells: Melanoma LOXIMVI; conditions: for % Growth: LOXIMVI
# Summary of the method: as §1
# OVCAR-5 = assay: NCI screen, growth of human tumor cells: Ovarian Cancer OVCAR-5; conditions: OVCAR-5, 10^−4 molar
# Summary of the method: as §1
# UACC-257 = assay: NCI screen, growth of human tumor cells: Melanoma UACC-257; conditions: UACC-257, 10^−4 molar
# Summary of the method: as §1
# SF-539 = assay: NCI screen, growth of human tumor cells: CNS Cancer SF-539; conditions: SF-539 (CNS Cancer), 10^−4 molar
# Summary of the method: as §1
# UACC-62 = assay: NCI screen, growth of human tumor cells: Melanoma UACC-62; conditions: UACC-62, 10^−4 molar
# Summary of the method: as §1
# SF-268 = assay: NCI screen, growth of human tumor cells: CNS Cancer SF-268; conditions: SF-268 (CNS Cancer), 10^−4 molar
# Summary of the method: as §1
# IGROVI = assay: NCI screen, growth of human tumor cells: Ovarian Cancer IGROVI; conditions: IGROVI, 10^−4 molar
# Summary of the method: as §1
# NCI-H522 = assay: NCI screen, growth of human tumor cells: Non-Small Cell Lung NCI-H522; conditions: NCI-H522, 10^−4 molar
# Summary of the method: as §1
# NCI-H322M = assay: NCI screen, growth of human tumor cells: Non-Small Cell Lung NCI-H322M; conditions: NCI-H322M, 10^−4 molar
# Summary of the method: as §1
# HOP-92 = assay: NCI screen, growth of human tumor cells: Non-Small Cell Lung HOP-92; conditions: HOP-92 (Non-Small Cell Lung), 10^−4 molar
# Summary of the method: as §1
# NCI-H460 = assay: NCI screen, growth of human tumor cells: Non-Small Cell Lung NCI-H460; conditions: NCI-H460 (Non-Small Cell Lung), 10^−4 molar
# Summary of the method: as §1
smiles,measurement,setting,value
"Cc1ccc2ccccc2c1CC1S(=O)(=O)OCCOS1(=O)=O [NSC 679043, ethylene 2-methyl-1-naphyl-1,1-ethanedisulfonate]",% Growth,MALME-3M; MALME-3M,−88%
same,percent of growth of human tumor cells,"SK-MEL-2; SK-MEL-2 (Melanoma), 10^−4 molar",−59%
same,% Growth,OVCAR-4,−97%
same,% Growth,"SK-MEL-5; SK-MEL-5, 10^−4 molar",−91%
same,% Growth,KM12,−69%
same,% Growth,"PC-3; PC-3, 10^−4 molar",−91%
same,% Growth,"PC-3; PC-3, 10^−5 molar",57%
same,% Growth,AS49/ATCC,−77%
same,% Growth,SR; 10^−4 molar,−63%
same,% Growth,SR; 10^−5 molar,42%
same,% Growth,"K562; K562, 10^−4 molar",−42%
same,% Growth,"K562; K562, 10^−5 molar",48%
same,% Growth,UO-31,−100%
same,% Growth,"U-251; U251, 10^−4 molar",−96%
same,% Growth,DU-145,−100%
same,% Growth,OVCAR-3,−100%
same,% Growth,"HCT-116; HCT-116, 10^−4 molar",−99%
same,% Growth,"HCT-116; HCT-116, 10^−5 molar",15%
same,% Growth,786-0,−97%
same,% Growth,"MOLT-4; MOLT-4, 10^−4 molar",−46%
same,% Growth,"MOLT-4; MOLT-4, 10^−5 molar",36%
same,% Growth,"MCF 7; MCF7, 10^−4 molar",−78%
same,% Growth,"MCF 7; MCF7, 10^−5 molar",45%
same,percent of growth of human tumor cells,MCF7/ADR-RES,−12%
same,% Growth,"MDA-MB-435; MDA-MB-435, 10^−4 molar",−90%
same,% Growth,"MDA-MB-435; MDA-MB-435, 10^−5 molar",47%
same,% Growth,HOP-62,−77%
same,% Growth,EKVX,−98%
same,% Growth,"HCC-2998; HCC-2998, 10^−4 molar",−88%
same,% Growth,"HCC-2998; HCC-2998, 10^−5 molar",22%
same,% Growth,"NCI-H23; NCI-H23, 10^−4 molar",−48%
same,% Growth,"NCI-H23; NCI-H23, 10^−5 molar",75%
same,% Growth,"NCI-H226; NCI-H226, 10^−4 molar",−63%
same,% Growth,"NCI-H226; NCI-H226, 10^−5 molar",49%
same,% Growth,"CAKI-1; CAKI-1, 10^−4 molar",−100%
same,% Growth,CCRF-CEM; 10^−4 molar,−49%
same,% Growth,CCRF-CEM; 10^−5 molar,37%
same,% Growth,LOXIMVI; 10^−4 molar,−84%
same,% Growth,LOXIMVI; 10^−5 molar,45%
same,% Growth,OVCAR-5,−98%
CC1(C)OCC(COC(=O)C(=O)C2(Cc3ccc4c(c3)C(=O)c3ccccc3C4=O)S(=O)(=O)OCCOS2(=O)=O)O1 (stereo not drawn) [NSC 737276],percent of growth of human tumor cells,MALME-3M; MALME-3M (Melanoma),−50%
same,% Growth,"SK-MEL-2; SK-MEL-2, 10^−4 molar",−62%
same,% Growth,OVCAR-4,−73%
same,percent of growth of human tumor cells,"SK-MEL-5; SK-MEL-5 (Melanoma), 10^−4 molar",−4%
same,% Growth,KM12,−74%
same,% Growth,"PC-3; PC-3, 10^−4 molar",−68%
same,percent of growth of human tumor cells,"SR; SR (Leukemia), 10^−4 molar",12%
same,percent of growth of human tumor cells,"K562; K562 (Leukemia), 10^−4 molar",29%
same,% Growth,UACC-257,−76%
same,% Growth,UO-31,−81%
same,percent of growth of human tumor cells,"U-251; U-251 (CNS Cancer), 10^−4 molar",−53%
same,% Growth,DU-145,−81%
same,% Growth,OVCAR-3,−71%
same,percent of growth of human tumor cells,SF-539,−43%
same,% Growth,"HCT-116; HCT-116, 10^−4 molar",−86%
same,% Growth,786-0,−74%
same,% Growth,UACC-62,−91%
same,percent of growth of human tumor cells,"MOLT-4; MOLT-4 (Leukemia), 10^−4 molar",−26%
same,percent of growth of human tumor cells,"MCF 7; MCF 7 (Breast Cancer), 10^−4 molar",−59%
same,percent of growth of human tumor cells,MCF7/ADR-RES,−29%
same,percent of growth of human tumor cells,SF-268,−40%
same,% Growth,IGROVI,−70%
same,% Growth,HOP-62,−84%
same,% Growth,EKVX,−81%
same,% Growth,NCI-H522,−91%
same,% Growth,"HCC-2998; HCC-2998, 10^−4 molar",−96%
same,% Growth,"NCI-H23; NCI-H23, 10^−4 molar",−75%
same,% Growth,NCI-H322M,−87%
same,percent of growth of human tumor cells,"NCI-H226; NCI-H226 (Non-Small Cell Lung), 10^−4 molar",10%
same,percent of growth of human tumor cells,"CAKI-1; CAKI-1 (Renal Cancer), 10^−4 molar",15%
same,percent of growth of human tumor cells,"CCRF-CEM; CCRF-CEM (Leukemia), 10^−4 molar",−38%
same,percent of growth of human tumor cells,HOP-92,−47%
same,percent of growth of human tumor cells,"LOXIMVI; LOXIMVI (Melanoma), 10^−4 molar",−48%
same,percent of growth of human tumor cells,NCI-H460,−59%
same,% Growth,OVCAR-5,−89%
